A melting point compilation (Tetko et al.; mined from patent text by program, amines drawn as free bases though some values may be those of a salt)

First: CCOC(=O)C(O)=Cc1ccc(Oc2ccccc2)nn1
Second: O=C(O)C1=Cc2ccc(Oc3ccccc3)cc2OC1C(F)(F)F (stereo not given)
The melting point of the first is lower: 127 to 128 °C for the first, 180 to 181 °C for the second.

Compared with `CC(=O)c1c(-c2ccnc3ccccc23)[nH]c(-c2ccnc3ccccc23)c1C`, `CCn1nc(-c2ccccc2)c(C(C)=O)c(Nc2cccc3ncccc23)c1=O` is lower in melting point: > 260 °C for the first, 220 to 221 °C for the second.

Compared with `CON=C1c2ccccc2-c2c(N3CCNCC3)nc3ccccc3c21`, `Cc1nc(-c2cccc3ccccc23)n2cn[nH]c(=O)c12` is higher in melting point: 149 to 150 °C for the first, 261 to 263 °C for the second.

Compared with `O=S(=O)(NCCCCOc1ccc(-n2ccnc2)cc1)c1ccc(I)cc1`, `O=C(NCCCCOc1ccc(-n2ccnc2)cc1)Nc1ccc(Br)cc1` is higher in melting point: 150 to 152 °C for the first, 157 to 159 °C for the second.

First: CC1(C)CCC(C)(C)c2ccccc21
Second: COC1(C)CCc2cc(OC(=O)c3ccccc3)c(C)c(C)c2O1 (stereo not given)
The melting point of the first is lower: 71 to 72 °C for the first, 102 °C for the second.

Compared with `COc1ccc2c(C)n[nH]c(=O)c2c1`, `COC[C@@H]1CN(c2nsc3cc(O)ccc23)C(=O)O1` is lower in melting point: 203 to 205 °C for the first, 142 to 143 °C for the second.

`CCOC(=O)C1=C(CCN2C(=O)c3ccccc3C2=O)NC(CCN2C(=O)c3ccccc3C2=O)=C(C(=O)OCC)C1c1ccccc1Cl` and `CC(=O)Nc1ccccc1N(CC(=O)OC(C)(C)C)C(=O)CN1C(=O)c2ccccc2C1=O` are the same in melting point: 170 °C for the first, 170 °C for the second.

Compared with `COc1ccc(Cc2cc(SC#N)ccc2OC)cn1`, `CCOc1cc(C)c(CCc2ccc(OC)c(OC)c2)cc1OC` is lower in melting point: 56 to 58 °C for the first, 38.4 °C for the second.

First: CCCN(CCC)c1nc(C#N)c(C#N)nc1CC
Second: CC[C@H]1COC(=O)N1c1nc(-c2ccc(C#N)cc2)c(C#N)s1
The melting point of the first is lower: 58 to 60 °C for the first, 201 to 203 °C for the second.

First: COC(=O)c1c[nH]c(C=O)c1
Second: O=C(O)/C=C/c1ccc(OS(=O)(=O)C(F)(F)F)cc1
The melting point of the first is lower: 97 to 99 °C for the first, 194 °C for the second.

First: Fc1ccc2nc[nH]c2c1
Second: CCc1nc2ccc(Br)cc2c2ccc(F)cc12
The melting point of the first is higher: 194 to 196 °C for the first, 111 °C for the second.

First: CN(C)c1cccc([N+](=O)[O-])c1CC=NNC(N)=O
Second: O=C1SCc2c1cccc2[N+](=O)[O-]
The melting point of the first is higher: 156 to 157 °C for the first, 128 to 133 °C for the second.

First: O=C1CC=C(c2ccc(F)cc2)CC1
Second: O=C1CCC(C(=O)O)(c2ccc(Cl)cc2)CC1
The melting point of the first is lower: 44.5 to 46.5 °C for the first, 162 to 164 °C for the second.

Compared with `[N-]=[N+]=C1C(=O)CC(c2ccccc2)CC1=O` (stereo not given), `O=S(=O)(CC=C1CCC1)c1ccccc1` is lower in melting point: 122 to 124 °C for the first, 76 to 78 °C for the second.

Compared with `O=C(Nc1ncc(C(F)(F)F)o1)C1c2ccccc2Oc2cc(F)ccc21` (racemic), `CN1C(C(=O)Nc2cccc(F)c2)=C(O)c2ccc3ccccc3c2S1(=O)=O` is higher in melting point: 250 °C for the first, 278 to 279 °C for the second.

First: CC(C)(C)NC(=O)C(Cc1ccc(OCc2ccccc2)cc1)NC(=O)c1ccc(C(C)(C)C)cc1 (stereo not given)
Second: COc1ccc(-c2csc(NC(=O)C(=O)OCCc3ccccc3)n2)cc1
The melting point of the first is lower: 124 to 131 °C for the first, 165 to 167 °C for the second.

`CSc1cc(C)nc(SC)c1NC(=O)CC=CC1=C(c2ccccc2)c2ccccc2OC1` and `Cc1cc(C2=NN(C(=O)N[C@H](C)c3ccccc3)[C@H](C)Cc3cc4c(cc32)OCO4)ccc1[N+](=O)[O-]` cannot be ordered by melting point: 204 to 206 °C for the first, 202 to 205 °C for the second.

First: Cc1c(OCc2nnn[nH]2)cc2c(c1Cl)C(=O)C1(CCCC1)C2=O
Second: O=C1CCC(c2ccc(OCC3CO3)c(Cl)c2)=NN1 (stereo not given)
The melting point of the first is higher: 211 °C for the first, 148 to 149 °C for the second.

Compared with `COc1ccc(Nc2c([N+](=O)[O-])cc([N+](=O)[O-])cc2C(F)(F)F)nc1`, `O=C(Oc1cc([N+](=O)[O-])ccc1[N+](=O)[O-])c1cc2ccccc2oc1=O` is higher in melting point: 102 to 105 °C for the first, 223 to 225 °C for the second.

Compared with `CC(Cc1c[nH]c2ccccc12)(NC(=O)OC1C2CC3CC(C2)CC1C3)C(=O)NCCC1=CCCCC1` (stereo not given), `O=C(NCCCCN1CCC(c2c[nH]c3ccccc23)CC1)c1sc(-c2ccc(C(F)(F)F)cc2)nc1CO` is higher in melting point: 77 to 79 °C for the first, 235 °C for the second.

Compared with `N#CCCN1C(=O)C(O)N=C(c2ccccc2Cl)c2cc(Cl)ccc21` (stereo not given), `O=C(C=Cc1ccc(Cl)cc1Cl)c1ccccc1[N+](=O)[O-]` is lower in melting point: 198 to 202 °C for the first, 130 to 132 °C for the second.

First: COc1cc(OC)c2c(=O)[nH]c(-c3ccc(N4C[C@@H](C)N(C(C)=O)[C@@H](C)C4)cc3)nc2n1
Second: COc1cc2cc(CO)nc(-c3ccnc(NN)c3)c2cc1OC
The melting point of the first is higher: 279 to 280 °C for the first, 157 to 159 °C for the second.

First: CCCCC(=O)Nc1cccc2c1C1(COc3cc4c(cc31)OCCO4)C(=O)N2C (stereo not given)
Second: CC(=O)CS(=O)CCc1ccc2c(c1)OCO2 (stereo not given)
The melting point of the first is higher: 182 to 183 °C for the first, 82 to 84.5 °C for the second.

Compared with `Cc1cccc(C)c1NC(=O)CCSc1cc(C(C)(C)C)c(O)c(C(C)(C)C)c1`, `COC(=O)C(CCSC)NC(=O)c1ccc(NC(=O)C2CC(O)CN2C(=O)OC(C)(C)C)cc1-c1ccccc1` (stereo not given) is lower in melting point: 142 to 144 °C for the first, 121 to 123 °C for the second.

First: CN(C)c1nc2c(N)cc(Br)cc2n1C
Second: CC1CCN(c2cc3nc(C(C)(C)C)sc3cc2N)CC1
The melting point of the first is lower: 137 °C for the first, 146 to 148 °C for the second.

Compared with `Cn1c(=O)c2c(ncn2CCCOS(C)(=O)=O)n(C)c1=O`, `Cn1c(C(F)(F)F)cc(=O)n(-c2ccc(Cl)c3nc(C(C)(C)C)oc23)c1=O` is higher in melting point: 112 to 113 °C for the first, 146 to 148 °C for the second.

Compared with `CN(CCc1ccc(NC(=N)C(F)(F)F)cc1)Cc1ccccc1`, `N#Cc1ccc(NC(=S)Nc2ncccc2OCc2ccccc2)cc1` is higher in melting point: 105 to 107 °C for the first, 163 to 165 °C for the second.

Compared with `CCN(CC)c1cc(=O)c2c(o1)c(OC)cc1ccccc12`, `COc1cc(OCc2ccccn2)ccc1/C=C/c1cc(/C=C/c2cc3ccccc3o2)n[nH]1` is higher in melting point: 150 to 151 °C for the first, 199 to 201 °C for the second.

First: CCOCCNC(=O)OCCCc1ccc(OCCOC)cc1Oc1ncc(C(F)(F)F)cc1Cl
Second: CCCc1nn(-c2ccc(C(F)(F)F)cn2)cc1CCCOc1cc(CC(=O)O)cc(OC)c1
The melting point of the first is lower: 66 to 68 °C for the first, 139 to 140 °C for the second.

First: O=C(O)c1ncn2c1[C@@H]1CCN1C(=O)c1c-2ccc(F)c1Cl
Second: CC1CCc2c(N3CCN(Cc4ccc(N)cc4)CC3)c(F)cc3c(=O)c(C(=O)O)cn1c23 (stereo not given)
The melting point of the first is higher: 225 to 226 °C for the first, 216 to 218 °C for the second.

First: CC(O)Cc1nc(Cl)ccc1N (stereo not given)
Second: Cn1ccnc1-c1ccccc1N
The melting point of the first is lower: 118 to 121 °C for the first, 152 to 153 °C for the second.

`CNC1Oc2cc(Cl)cc(-c3ccccc3Cl)c2O1` (stereo not given) and `NCC1Cc2cccc(-c3ccc(F)c(Cl)c3)c2O1` (stereo not given) cannot be ordered by melting point: > 250 °C for the first, > 210 °C for the second.

First: O=C(O)C1(c2ccccc2)CCN(CCC(c2ccccc2)(c2ccccc2)c2ccccn2)CC1
Second: O=C(OCC1OC(n2cnc3c(NCC(c4ccccc4)c4ccccc4)ncnc32)C(OC(=O)c2ccccc2)C1OC(=O)c1ccccc1)c1ccccc1 (stereo not given)
The melting point of the first is higher: 270 to 275 °C for the first, 60 to 75 °C for the second.

First: CCOC(=O)c1c(COC(C)=O)[nH]c(=O)n1C(C)=O
Second: CCOC(=O)C(=Cc1ccc(-c2nc3ccc(O)cc3o2)cc1)C(=O)OCC
The melting point of the first is lower: 138 to 139 °C for the first, 153 to 155 °C for the second.

Compared with `O=C(c1ccc(-c2ccc(NC(=S)Nc3ccccc3)cc2)o1)N1CCN2CCC1CC2`, `Cc1ccc(-n2ncc(C(=O)Nc3ccc(N4CCN(C5CCOCC5)CC4)c(C#N)c3)c2C)cc1` is higher in melting point: 171 to 175 °C for the first, 258 °C for the second.

First: CN(C)CCCn1c(-c2ccc(C#N)cc2)cc2c1CCCCC2
Second: CCCCCOc1cc(C=Cc2nc3c(s2)NCCCC3)ccc1OC
The melting point of the first is lower: 96 to 97 °C for the first, 124 to 125 °C for the second.

First: CCCC1CCC2(C)C(=CCC3C4CCC(=O)C4(C)CCC32)C1 (stereo not given)
Second: O=C1Nc2ccc([N+](=O)[O-])cc2C(=O)N2CCC[C@@H]12
The melting point of the first is lower: 103 to 105 °C for the first, 259 to 261 °C for the second.

First: Clc1ccccc1CN1CC=C(c2cc3ccccc3s2)CC1
Second: CC(=O)N1c2ccccc2Sc2c(O)c(O)c3ccccc3c21
The melting point of the first is lower: 105 to 106 °C for the first, 258 to 260 °C for the second.

Compared with `O=S1(=O)C=CC=CC=N1`, `Cn1c(=Nc2ccc(Cl)cc2)sc2ncccc2c1=O` is lower in melting point: 144 to 146 °C for the first, 142 to 143 °C for the second.

First: COc1cc(C(=O)CS(C)=O)c(N)c(OC)c1OC (stereo not given)
Second: CCOC(=O)Cc1nsc(Nc2ccc(F)c(F)c2)n1
The melting point of the first is higher: 102 to 104 °C for the first, 84 to 90 °C for the second.

First: Cc1oc(-c2ccccc2)nc1CCOc1cccc2c1ccn2C(C)C(=O)O (stereo not given)
Second: O=Cc1ccc(F)c(OCc2ccccc2)c1
The melting point of the first is higher: 157 to 159 °C for the first, 68 to 69 °C for the second.

First: C#CCNC(=O)c1ccccc1Nc1nc(Cl)ncc1Cl
Second: N#CC1=C(C2CCCC2)Nc2n[nH]cc2C1c1ccccc1Cl (stereo not given)
The melting point of the first is lower: 188 to 191 °C for the first, 225 °C for the second.

First: Cc1cc(Nc2ccc(F)cc2)nc(Nc2ccc(S(=O)(=O)N(C)C3CCN(Cc4ccoc4)CC3)cc2)n1
Second: O=C(NCCC(=O)N1CCCCC1)c1ccc(-c2ccc3nnn(Cc4ccc5ncccc5c4)c3n2)cc1F
The melting point of the first is higher: 156 °C for the first, 109 to 111 °C for the second.

First: NC(=O)N(O)Cc1ccc(CCCCCC(F)(F)F)s1
Second: CC1(C)C(=O)N(c2ccc([N+](=O)[O-])c(C(F)(F)F)c2)C(=O)N1CCCCCCN1C(=O)N(c2ccc([N+](=O)[O-])c(C(F)(F)F)c2)C(=O)C1(C)C
The melting point of the first is lower: 94 °C for the first, 187 to 188 °C for the second.

First: CCN(CC)CCCNc1ncc2cc(-c3c(Br)cccc3Br)c(N)nc2n1
Second: CCn1ncc2c3noc(-c4cccc(OC)c4)c3cnc21
The melting point of the first is higher: 226 to 230 °C for the first, 170 to 171 °C for the second.

Compared with `N#Cc1cnc2cc(/C=C/CN3CCOCC3)ccc2c1Nc1ccc(Cl)cc1Cl`, `Nc1nccc2cc(CNC(=O)C3CCCN3)ccc12` (stereo not given) is lower in melting point: 175 to 176 °C for the first, 140 to 142 °C for the second.

Compared with `CC(C)CC(CS)C(N)=O` (stereo not given), `Cc1ccc(C(=O)c2cccc(C(C)C#N)c2)cc1` (stereo not given) is lower in melting point: 147 to 154 °C for the first, 52 to 55 °C for the second.

First: CCN(CC)c1ccc(-n2c(CC(=O)O)c(C(=O)O)c3cc(Oc4ccc(Cl)cc4)ccc32)cc1
Second: CCOC(=O)c1csc(-c2ccc3cc(C(=O)OCc4ccccc4)c(C45CC6CC(CC(C6)C4)C5)cc3c2)c1
The melting point of the first is higher: 210 °C for the first, 98 to 100 °C for the second.

Compared with `S=C(Cl)c1cc(C(Cl)(Cl)Cl)c(Cl)cc1Cl`, `C=CCn1cc(C(=O)O)c(=O)c2cc(F)c(N3CCNCC3)cc21` is higher in melting point: 79 to 81 °C for the first, 136 °C for the second.

First: NS(=O)(=O)c1cc2c(s1)S(=O)(=O)CC(=S)N2
Second: N#CC(=CNc1ccccc1)Cc1ccc2ccccc2c1
The melting point of the first is higher: 219 to 221 °C for the first, 148 to 153 °C for the second.
